How the values were obtained:
P. falciparum [1] = test: Pfs16 and Pfs25 expression in parasite-fed mosquito midguts (parasite death); assay type: in vivo; conditions: between 18 and 24 hours post-bloodmeal
Protocol: Expression levels are shown of P. falciparum genes Pfs16 and Pfs25 in ABA-supplemented parasite-fed mosquito midguts. Data are normalized to mosquito and parasite ribosomal genes s7 and A18s. Each dot represents one replicate of 10 pooled midguts. Data are shown as fold change relative to control and were analyzed by one sample t-test. * p<0.05.

defensin = test: Defensin mRNA levels in mosquito midgut; assay type: in vivo, Anopheles stephensi; conditions: 100 nM ABA, 4 hours post-feeding
Protocol: (§1) For mosquito immune gene expression, 20 midguts were dissected from mosquitoes in each treatment group at 1, 2, 4, 6, 8 and 24 hours post-feeding. Midguts were sonicated and stored in Trizol at −20° C. for up to a week before RNA was extracted according to manufacturer's instructions. cDNA synthesis was carried out using QantiTect Reverse Transcription Kit (Qiagen) and 200 ng of cDNA used per reaction for qRT-PCR with Sybr Green (Applied Biosystems). Fold changes in expression levels were calculated using the comparative threshold cycle method. Data were normalized to the housekeeping gene ribosomal protein S7 and to the control treatment. Primers and cycling conditions for AsNOS, defensin, LRIM, TEP1, and APL1 were as previously described (Hauck E S, et al. Microbes Infect. 2013; 15:775-87). […] Samples were analyzed in triplicate with 250 ng of cDNA per reaction to confirm uniformity of amplification. […] All expression data were analyzed by one sample t-test.
(§2) Transcript levels of a panel of immune genes previously described to play a role in the mosquito immune response to malaria parasites were examined. […] Mosquitoes were provided with a P. falciparum-infected bloodmeal supplemented with 100 nM ABA or with an equivalent volume of diluent as control, then analyzed at 1-24 hours post feeding.

influenza = conditions: ABA treatment; cited from earlier work
P. falciparum [2] = test: P. falciparum infection of A. stephensi fed a supplemented infected bloodmeal; assay type: in vivo; conditions: for reduction of infection prevalence in A. stephensi: relative to control
Protocol: For P. falciparum infections A. stephensi were fed on a 1:1 ratio of P. falciparum-infected RBCs containing a treatment or diluent control and provided in a Hemotek Insect Feeding System (Discovery Workshops). ABA was eluted in 100% ethanol and stored at −20 C for up to 6 months. ABA stock was diluted with PBS and added into blood immediately before feeding for final concentrations of 10 nM and 100 nM. For L-NAME feeds mosquitoes were maintained on sugar cubes and water pads containing 1 mg/mL L-NAME for 72 hours before the feed and throughout the course of infection. Infection prevalence data were analyzed by Fisher's Exact Test. Oocyst intensities were analyzed by Mann-Whitney test.

[3] = ABA extraction from mouse plasma and quantification by ELISA; assay type: in vivo, mice
Protocol: (§3) Mice were euthanized on day 7 post-infection. Blood was collected by heart puncture, spun at 8,000 rpm for 8 minutes and the plasma collected for ABA quantification. Livers and spleens were collected, retained in 10% formalin for 24 hours and then stored in 70% ethanol before sectioning and staining with hematoxylin and eosin. Liver sections were blindly scored on a scale from 0 to 3 for pigment levels, Kupffer cell density, portal tract inflammation, hemozoin deposition, extramedullary hematopoiesis, sinusoidal leukocyte density, sinusoidal adherence of leukocytes, and presence of microabscesses. Spleen sections were blindly scored on a scale from 0 to 3 for hyperplasia, extramedullary hematopoiesis, pigment, and levels of histiocytes and neutrophils. Pathology scores of control and treated mice were analyzed by unpaired t-test.
ABA was extracted from mouse plasma as described (Engelberth, J Vis Exp, 2009, 28:1127). Briefly, 50 μL of plasma was added to 200 μL extraction buffer (1-propanol:H2O:concentrated HCL at a 2:1:0.002 volume ratio) and vortexed. […] Dried samples were re-eluted in 100% methanol and ABA levels determined using the Phytodetek Abscisic Acid ELISA kit (Agdia) according to the manufacturer's instructions. ABA levels in the plasma of control and ABA-supplemented mice, 4-5 per group, were analyzed by Mann Whitney test.

spleen = test: Spleen histology scoring; assay type: in vivo; conditions: P. yoelii-infected mice
Protocol: as §3

AsNOS = AsNOS transcript levels in mosquito midgut; assay type: in vivo, Anopheles stephensi; conditions: midguts, relative to controls, 4-6 hours post-feeding
Protocol: as §1, §2

CC1=CC(=O)CC(C)(C)[C@@]1(O)/C=C/C(C)=C\C(=O)O (racemic) [ABA, (2Z,4E)-5-[(1S)-1-hydroxy-2,6,6-trimethyl-4-oxocyclohex-2-en-1-yl]-3-methylpenta-2,4-dienoic acid]
parasite death in mosquito midgut (Pfs16 and Pfs25 expression) (P. falciparum [1]): increased parasite death | defensin mRNA levels (defensin): increase | vascular infiltrates (influenza): decreased | viral load (influenza): no effect | reduction of infection prevalence in A. stephensi (P. falciparum [2]; 10 nM ABA in bloodmeal): 30% | mean oocysts per midgut (P. falciparum [2]; 10 nM ABA, among infected mosquitoes (controls 2.1)): 1.6 | reduction of infection prevalence in A. stephensi (P. falciparum [2]; 100 nM ABA in bloodmeal): 36% | increase of ABA levels in plasma ([3]; P. yoelii infection, vs non-supplemented infected mice): over 6 fold | ABA levels in plasma ([3]; oral supplementation, absence of infection): did not alter | histiocyte density, pigment deposition, extramedullary hematopoiesis in the spleen (spleen): not altered | lymphoid hyperplasia of the spleen (spleen): reduced | AsNOS transcript levels induction (AsNOS): up to 13 fold
